# Assay results as given in ChEMBL document CHEMBL1201862, “PubChem BioAssay data set” (2004).
# The source made the active and inactive calls.
# Legend:
# [1] = HEK293 cell cytotoxicity, dose response, cytotoxicity control, ATP luminescence, dry powder, Set6 (AID 743142); format: functional, cell-based
# [2] = A549 cell cytotoxicity, dose response, cytotoxicity control, CellTiter-Glo luminescence, dry powder, set 3 (AID 743146); format: functional, cell-based
# [3] = target: T1, Aspartyl aminopeptidase (Plasmodium falciparum 3D7, UniProt Q8I2J3)
# T1 sequence (Q8I2J3 whole entry): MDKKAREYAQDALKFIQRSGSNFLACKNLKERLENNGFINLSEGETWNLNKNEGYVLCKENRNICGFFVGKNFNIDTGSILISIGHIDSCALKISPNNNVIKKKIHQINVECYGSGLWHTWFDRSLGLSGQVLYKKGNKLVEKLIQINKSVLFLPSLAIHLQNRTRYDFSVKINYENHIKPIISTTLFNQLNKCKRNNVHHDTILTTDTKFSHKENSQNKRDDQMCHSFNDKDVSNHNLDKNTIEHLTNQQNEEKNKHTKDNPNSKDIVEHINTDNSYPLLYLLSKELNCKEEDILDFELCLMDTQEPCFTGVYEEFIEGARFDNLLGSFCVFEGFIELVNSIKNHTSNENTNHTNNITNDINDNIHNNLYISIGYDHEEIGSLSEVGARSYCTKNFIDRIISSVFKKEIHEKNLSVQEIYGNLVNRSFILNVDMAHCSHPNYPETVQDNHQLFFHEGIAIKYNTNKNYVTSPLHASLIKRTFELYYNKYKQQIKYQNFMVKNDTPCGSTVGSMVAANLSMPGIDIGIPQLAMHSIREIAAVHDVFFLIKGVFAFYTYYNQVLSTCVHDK
# [4] = target: 5-hydroxytryptamine receptor 2A (Mus musculus, UniProt P35363); format: functional, cell-based;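 further: CHO-K1 cells with tagged receptor and beta-arrestin; agonist potency measured as compound-induced activation of the receptor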
# 5-hydroxytryptamine receptor 2A, sequence (P35363 whole entry): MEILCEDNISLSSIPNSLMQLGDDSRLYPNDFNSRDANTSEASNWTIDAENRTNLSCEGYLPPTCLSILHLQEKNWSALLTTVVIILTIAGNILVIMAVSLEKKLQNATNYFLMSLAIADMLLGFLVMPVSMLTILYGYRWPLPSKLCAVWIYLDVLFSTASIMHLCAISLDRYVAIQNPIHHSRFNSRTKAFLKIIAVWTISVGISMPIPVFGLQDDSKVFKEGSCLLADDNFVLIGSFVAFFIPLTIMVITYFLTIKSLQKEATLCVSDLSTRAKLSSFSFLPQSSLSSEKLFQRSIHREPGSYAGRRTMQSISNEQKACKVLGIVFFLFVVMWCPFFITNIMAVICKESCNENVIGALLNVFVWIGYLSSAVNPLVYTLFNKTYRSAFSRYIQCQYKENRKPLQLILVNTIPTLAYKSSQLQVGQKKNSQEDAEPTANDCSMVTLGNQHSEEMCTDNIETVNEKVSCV
# [5] = target: Procathepsin L (Homo sapiens, UniProt P07711)
# Procathepsin L, sequence (P07711 whole entry): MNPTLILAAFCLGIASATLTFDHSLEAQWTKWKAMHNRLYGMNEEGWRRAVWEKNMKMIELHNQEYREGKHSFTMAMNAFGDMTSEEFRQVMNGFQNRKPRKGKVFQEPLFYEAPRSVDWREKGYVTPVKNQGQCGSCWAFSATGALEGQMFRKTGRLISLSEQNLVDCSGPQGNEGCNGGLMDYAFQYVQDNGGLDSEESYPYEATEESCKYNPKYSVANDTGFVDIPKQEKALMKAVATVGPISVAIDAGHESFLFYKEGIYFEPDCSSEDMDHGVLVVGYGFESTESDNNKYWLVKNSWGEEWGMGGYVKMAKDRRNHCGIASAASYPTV
# [6] = target: T2, Insulin-degrading enzyme (Homo sapiens, UniProt P14735); assay: activators of recombinant IDE enzyme, dose response, counter-screen for IDE activator project, biochemical, fluorescence polarization (AID 588681)
# T2 sequence (P14735 whole entry): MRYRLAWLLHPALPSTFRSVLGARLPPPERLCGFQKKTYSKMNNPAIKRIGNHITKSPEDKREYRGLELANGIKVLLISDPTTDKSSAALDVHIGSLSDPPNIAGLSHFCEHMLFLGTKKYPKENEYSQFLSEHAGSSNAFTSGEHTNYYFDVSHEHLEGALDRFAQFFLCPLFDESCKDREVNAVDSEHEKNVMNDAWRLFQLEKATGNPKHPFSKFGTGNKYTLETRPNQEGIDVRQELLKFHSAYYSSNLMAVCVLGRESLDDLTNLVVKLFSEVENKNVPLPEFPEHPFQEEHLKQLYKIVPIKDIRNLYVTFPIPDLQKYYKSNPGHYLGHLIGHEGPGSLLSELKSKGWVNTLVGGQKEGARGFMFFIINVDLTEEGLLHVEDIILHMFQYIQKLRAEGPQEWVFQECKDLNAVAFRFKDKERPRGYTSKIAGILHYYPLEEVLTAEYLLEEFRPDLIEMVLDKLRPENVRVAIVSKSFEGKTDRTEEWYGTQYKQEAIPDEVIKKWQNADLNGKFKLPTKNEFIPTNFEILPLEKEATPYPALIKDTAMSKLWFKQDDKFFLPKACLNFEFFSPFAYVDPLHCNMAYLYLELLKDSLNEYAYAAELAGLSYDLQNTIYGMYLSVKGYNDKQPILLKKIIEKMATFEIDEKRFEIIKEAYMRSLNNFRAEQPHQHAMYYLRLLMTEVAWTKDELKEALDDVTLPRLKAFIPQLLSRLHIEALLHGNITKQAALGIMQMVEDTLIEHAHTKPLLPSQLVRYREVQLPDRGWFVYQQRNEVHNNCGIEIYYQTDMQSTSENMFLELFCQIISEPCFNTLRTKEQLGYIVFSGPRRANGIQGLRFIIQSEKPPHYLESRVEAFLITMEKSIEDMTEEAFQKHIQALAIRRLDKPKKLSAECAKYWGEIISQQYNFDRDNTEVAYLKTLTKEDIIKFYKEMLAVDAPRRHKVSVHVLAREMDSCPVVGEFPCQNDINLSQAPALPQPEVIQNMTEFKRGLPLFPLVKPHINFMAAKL
# [7] = target: Melanocortin receptor 4 (Homo sapiens, UniProt P32245); format: functional, cell-based;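 further: Cell-based assay with luminescence read-out, confirmatory dose-response testing for agonist activity of biased ligands at MC4R; human U2OS cells with tagged receptor and beta-arrestin; potency of agonists that increase receptor coupling to beta-arrestin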
# Melanocortin receptor 4, sequence (P32245 whole entry): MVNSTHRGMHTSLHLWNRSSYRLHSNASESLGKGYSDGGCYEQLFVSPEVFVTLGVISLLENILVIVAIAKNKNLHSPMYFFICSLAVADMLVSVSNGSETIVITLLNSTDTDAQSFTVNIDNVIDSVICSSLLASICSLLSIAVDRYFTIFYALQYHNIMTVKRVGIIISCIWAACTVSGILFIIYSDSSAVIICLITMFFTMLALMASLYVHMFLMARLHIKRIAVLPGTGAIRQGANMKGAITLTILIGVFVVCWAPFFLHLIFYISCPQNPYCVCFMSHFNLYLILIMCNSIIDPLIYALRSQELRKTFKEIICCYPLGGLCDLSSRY
# [8] = test system: HEK293; assay: optical interference in Abeta FP readout, dose response, artefact control for IDE activator project, biochemical, fluorescence polarization (AID 588442); format: functional, cell-based; settings: Homo sapiens
# [9] = test system: HEK293; assay: HEK cell cytotoxicity by LDH release, dose response, cytotoxicity control for IDE activator project, fluorescence, HEK cells (AID 588440); format: functional, cell-based; settings: Homo sapiens;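 further: cytotoxicity by LDH release measuring loss of membrane integrity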
# [10] = test system: A-375; assay: MITF: Counter assay: A375 proliferation Measured in Cell-Based System Using Plate Reader - 2084-03_Inhibitor_Dose_DryPowder_Activity. [Related pubchem assays (depositor defined):AID488944]; format: functional; settings: Homo sapiens
# [11] = target: T3, Microphthalmia-associated transcription factor (Homo sapiens, UniProt O75030); assay: TRPM1 promoter luciferase signal decrease, dose response, MITF inhibitor project, cell-based, SK-MEL-5, cherry-picked, set 3 (AID 493073); format: functional
# T3 sequence (O75030 whole entry): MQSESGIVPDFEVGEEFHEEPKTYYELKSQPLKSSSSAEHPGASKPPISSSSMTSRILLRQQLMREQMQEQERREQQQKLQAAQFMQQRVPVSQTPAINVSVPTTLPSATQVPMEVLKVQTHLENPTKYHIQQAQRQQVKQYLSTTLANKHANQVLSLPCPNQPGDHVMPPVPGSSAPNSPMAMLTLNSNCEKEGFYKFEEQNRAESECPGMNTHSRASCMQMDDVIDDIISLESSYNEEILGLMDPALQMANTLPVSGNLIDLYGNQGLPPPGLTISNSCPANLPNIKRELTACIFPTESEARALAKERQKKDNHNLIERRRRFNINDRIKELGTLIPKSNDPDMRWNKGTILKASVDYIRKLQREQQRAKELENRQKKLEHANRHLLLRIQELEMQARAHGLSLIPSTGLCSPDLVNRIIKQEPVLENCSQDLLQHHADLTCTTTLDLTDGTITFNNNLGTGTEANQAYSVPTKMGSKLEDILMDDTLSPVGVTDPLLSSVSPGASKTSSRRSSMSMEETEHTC
# [12] = HEK293T cell cytotoxicity, dose response, cytotoxicity control for HIV Vif inhibitor project, cherry-picks (AID 652208); format: functional, cell-based
# [13] = target: T2, Insulin-degrading enzyme; assay: activators of endogenous IDE in HEK cells, dose response, cell-based, fluorescence polarization (AID 588439); format: functional
# [14] = test system: INS1; assay: beta cell apoptosis inhibitors, cytokine rescue, dose response, luminescence, retest (AID 449756); format: functional, cell-based; settings: Rattus norvegicus;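 further: cell death triggered by IL-1 beta plus TNF-alpha plus IFN-gamma mixture; protective hits raise ATP signal compared with cytokine alone wells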
# [15] = reduction of Shn3 3'UTR firefly luciferase signal, dose response, Schnurri-3 inhibitor project, cell-based, Clone20 osteoblasts, cherry-pick, set 2 (AID 720490); format: functional;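 further: actives lower the luminescence signal as inhibitors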
# [16] = HepG2 cell cytotoxicity, dose response, cytotoxicity control for Shn3 inhibitor project, CellTiter-Glo, cherry-picked (AID 624134); format: functional, cell-based
# [17] = inhibitors of control Renilla luciferase reporter, dose response, counter-screen for Shn3 3'UTR targeting project, Clone20-Shn3RL cells, dual-Glo, cherry-pick, set 2 (AID 720724); format: functional, cell-based; settings: Dual-Go Shn3RL
# [18] = Shn3 3'UTR reporter inhibitors, dose response, cell-based, Clone20 osteoblasts, firefly luciferase, cherry-picked (AID 624132); format: functional;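 further: firefly luciferase luminescence from reporter carrying the Shn3 3'UTR in osteoblasts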
# [19] = cells; settings: A549
# [20] = microbe, parasite or virus in culture; format: functional; settings: Mycobacterium tuberculosis
# [21] = cells; settings: HEK293
# [22] = inhibitors of PGC1a acetylation in cells, dose response, cell-based, cherry-picked samples (AID 720514); format: functional;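 further: potency may reflect raised or lowered acetylation signal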
# [23] = control 3'UTR Renilla luciferase suppression, dose response, counter-screen for Shn3 inhibitor project, cell-based, Clone20-Shn3RL, cherry-picked (AID 624133); format: functional
# [24] = target: Disintegrin and metalloproteinase domain-containing protein 17 (Homo sapiens, UniProt P78536); assay: ADAM17 protease inhibitors, dose response, counter-screen for ADAM10 exosite inhibitor project, biochemical, quenched FRET substrate (AID 743253)
# Disintegrin and metalloproteinase domain-containing protein 17, sequence (P78536 whole entry, the tested form may be a part): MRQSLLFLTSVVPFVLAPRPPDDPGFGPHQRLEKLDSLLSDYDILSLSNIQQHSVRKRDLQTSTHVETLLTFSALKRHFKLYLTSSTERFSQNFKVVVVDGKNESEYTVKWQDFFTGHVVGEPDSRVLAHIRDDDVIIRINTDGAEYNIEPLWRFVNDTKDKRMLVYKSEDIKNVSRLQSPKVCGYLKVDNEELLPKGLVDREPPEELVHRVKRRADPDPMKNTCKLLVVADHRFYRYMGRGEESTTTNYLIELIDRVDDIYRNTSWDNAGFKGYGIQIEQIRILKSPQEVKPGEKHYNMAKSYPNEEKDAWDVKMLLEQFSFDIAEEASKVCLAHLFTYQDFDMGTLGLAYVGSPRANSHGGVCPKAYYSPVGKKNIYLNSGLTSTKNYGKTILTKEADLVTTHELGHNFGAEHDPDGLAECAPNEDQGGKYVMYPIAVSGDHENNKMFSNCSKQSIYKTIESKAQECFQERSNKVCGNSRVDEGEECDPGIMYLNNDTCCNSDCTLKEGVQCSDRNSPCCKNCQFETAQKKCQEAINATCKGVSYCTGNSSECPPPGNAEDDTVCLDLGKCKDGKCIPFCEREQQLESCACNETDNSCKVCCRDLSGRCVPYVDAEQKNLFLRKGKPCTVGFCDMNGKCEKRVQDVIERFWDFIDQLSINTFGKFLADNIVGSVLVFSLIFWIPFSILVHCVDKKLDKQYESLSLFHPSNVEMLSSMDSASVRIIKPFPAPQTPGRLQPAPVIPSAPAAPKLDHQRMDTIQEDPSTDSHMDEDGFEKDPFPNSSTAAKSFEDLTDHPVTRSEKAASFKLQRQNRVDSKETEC
# [25] = ADAM10 inhibitors, peptide cleavage, dose response, biochemical, QFRET (AID 743254);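 further: ADAM10 enzyme with the DM2 quenched FRET peptide as substrate; EDANS fluorescence gain as the protease cuts the substrate; inhibitor potency against ADAM10 proteolytic activity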
# [26] = target: Protein disulfide-isomerase (Homo sapiens, UniProt P07237); assay: PDI inhibitors, insulin turbidity readout, confirmation, biochemical, dry powder samples, set 2 (AID 652146)
# Protein disulfide-isomerase, sequence (P07237 whole entry, the tested form may be a part): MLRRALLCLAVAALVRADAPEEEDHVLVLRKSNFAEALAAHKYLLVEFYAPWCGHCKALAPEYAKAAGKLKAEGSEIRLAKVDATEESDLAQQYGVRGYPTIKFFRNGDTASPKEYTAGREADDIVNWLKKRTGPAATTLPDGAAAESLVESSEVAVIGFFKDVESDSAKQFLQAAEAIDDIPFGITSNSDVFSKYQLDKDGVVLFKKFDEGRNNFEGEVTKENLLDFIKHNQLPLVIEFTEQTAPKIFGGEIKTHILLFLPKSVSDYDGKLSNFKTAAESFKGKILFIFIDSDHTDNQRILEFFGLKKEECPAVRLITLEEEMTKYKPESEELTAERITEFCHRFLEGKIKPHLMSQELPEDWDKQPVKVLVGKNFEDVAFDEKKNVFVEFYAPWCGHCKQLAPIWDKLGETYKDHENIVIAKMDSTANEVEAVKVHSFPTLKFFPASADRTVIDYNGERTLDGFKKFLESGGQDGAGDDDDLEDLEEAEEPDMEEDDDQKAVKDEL
# [27] = target: Fatty acid synthase (Homo sapiens, UniProt P49327); assay: FAS thioesterase domain inhibitors, SAR follow-up, biochemical, endpoint fluorescence intensity, powder samples (AID 652164); format: functional
# Fatty acid synthase, sequence (P49327 whole entry, the tested form may be a part): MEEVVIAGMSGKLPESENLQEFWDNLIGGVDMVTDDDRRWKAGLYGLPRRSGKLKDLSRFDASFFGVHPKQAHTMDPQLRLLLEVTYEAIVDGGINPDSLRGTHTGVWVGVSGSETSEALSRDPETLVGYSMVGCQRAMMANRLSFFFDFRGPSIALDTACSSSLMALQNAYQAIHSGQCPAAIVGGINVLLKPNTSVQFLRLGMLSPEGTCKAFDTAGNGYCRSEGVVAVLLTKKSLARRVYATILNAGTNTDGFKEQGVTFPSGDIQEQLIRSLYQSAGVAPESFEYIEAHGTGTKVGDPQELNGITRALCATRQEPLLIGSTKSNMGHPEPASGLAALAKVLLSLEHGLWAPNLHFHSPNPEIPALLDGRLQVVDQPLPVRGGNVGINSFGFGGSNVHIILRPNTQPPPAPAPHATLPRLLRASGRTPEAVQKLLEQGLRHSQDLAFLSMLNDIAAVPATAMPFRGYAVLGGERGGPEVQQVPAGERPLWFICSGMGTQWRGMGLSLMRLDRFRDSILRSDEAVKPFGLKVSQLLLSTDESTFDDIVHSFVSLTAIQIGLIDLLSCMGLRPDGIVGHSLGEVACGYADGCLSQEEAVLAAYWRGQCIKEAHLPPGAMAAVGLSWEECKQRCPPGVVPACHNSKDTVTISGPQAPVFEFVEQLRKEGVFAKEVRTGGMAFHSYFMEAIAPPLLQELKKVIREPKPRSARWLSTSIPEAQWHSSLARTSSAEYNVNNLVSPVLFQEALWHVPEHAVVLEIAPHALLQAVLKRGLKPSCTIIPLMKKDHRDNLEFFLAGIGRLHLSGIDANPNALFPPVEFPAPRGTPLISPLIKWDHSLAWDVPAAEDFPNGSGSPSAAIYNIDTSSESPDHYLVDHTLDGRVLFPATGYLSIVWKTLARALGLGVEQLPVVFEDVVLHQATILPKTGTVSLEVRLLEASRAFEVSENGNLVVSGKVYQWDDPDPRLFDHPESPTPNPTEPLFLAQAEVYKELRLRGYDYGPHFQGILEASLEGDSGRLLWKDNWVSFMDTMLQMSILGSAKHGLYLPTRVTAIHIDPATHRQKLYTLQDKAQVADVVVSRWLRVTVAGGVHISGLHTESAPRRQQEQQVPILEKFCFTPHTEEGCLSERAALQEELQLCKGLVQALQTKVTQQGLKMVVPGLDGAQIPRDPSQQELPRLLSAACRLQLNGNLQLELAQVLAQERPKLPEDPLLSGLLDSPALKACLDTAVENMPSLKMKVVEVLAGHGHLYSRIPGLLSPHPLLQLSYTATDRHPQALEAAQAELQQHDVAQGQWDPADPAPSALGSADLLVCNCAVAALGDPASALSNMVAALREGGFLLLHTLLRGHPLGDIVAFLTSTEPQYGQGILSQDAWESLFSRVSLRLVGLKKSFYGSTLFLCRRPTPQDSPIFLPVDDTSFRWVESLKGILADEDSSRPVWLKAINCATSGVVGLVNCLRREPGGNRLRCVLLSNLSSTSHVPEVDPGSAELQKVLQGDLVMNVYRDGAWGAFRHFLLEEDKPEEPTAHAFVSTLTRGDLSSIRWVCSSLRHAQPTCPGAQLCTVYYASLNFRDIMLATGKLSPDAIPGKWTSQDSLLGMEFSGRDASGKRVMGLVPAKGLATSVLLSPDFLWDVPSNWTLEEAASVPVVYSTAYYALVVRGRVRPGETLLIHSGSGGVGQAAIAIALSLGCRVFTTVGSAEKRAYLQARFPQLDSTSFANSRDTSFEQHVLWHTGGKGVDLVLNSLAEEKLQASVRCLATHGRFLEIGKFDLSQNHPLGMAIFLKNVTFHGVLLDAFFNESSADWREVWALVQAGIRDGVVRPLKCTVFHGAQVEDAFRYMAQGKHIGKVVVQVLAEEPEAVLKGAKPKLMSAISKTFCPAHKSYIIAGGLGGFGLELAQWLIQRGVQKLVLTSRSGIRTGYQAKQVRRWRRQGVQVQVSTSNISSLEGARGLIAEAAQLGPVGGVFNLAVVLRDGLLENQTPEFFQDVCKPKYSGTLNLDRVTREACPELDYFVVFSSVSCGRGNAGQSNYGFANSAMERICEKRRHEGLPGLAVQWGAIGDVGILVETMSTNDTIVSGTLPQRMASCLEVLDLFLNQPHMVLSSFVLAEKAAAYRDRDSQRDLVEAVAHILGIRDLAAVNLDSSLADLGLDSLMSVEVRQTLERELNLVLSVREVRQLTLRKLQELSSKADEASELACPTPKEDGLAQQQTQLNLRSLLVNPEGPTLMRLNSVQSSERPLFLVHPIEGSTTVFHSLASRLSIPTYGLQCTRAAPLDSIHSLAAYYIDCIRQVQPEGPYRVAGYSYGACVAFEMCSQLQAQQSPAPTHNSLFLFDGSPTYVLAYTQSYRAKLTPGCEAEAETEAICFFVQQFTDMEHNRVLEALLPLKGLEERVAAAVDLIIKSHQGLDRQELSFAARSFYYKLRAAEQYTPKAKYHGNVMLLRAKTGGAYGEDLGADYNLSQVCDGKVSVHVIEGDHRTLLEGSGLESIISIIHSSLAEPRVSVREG
# [28] = cytotoxicity in HeLa cells, dose response, cytotoxicity control, cell-based, 24 h, dry powder, set 2 (AID 651774); format: functional
# [29] = target: SWI/SNF-related matrix-associated actin-dependent regulator of chromatin subfamily A member 2 (Homo sapiens, UniProt P51531); assay: Luminescence-based cell-based high throughput dose response assay to identify activators of the function of SWI/SNF related, matrix associated, actin dependent regulator of chromatin, subfamily a, member 2 (SMARCA2, BRM).; format: functional
# [30] = Counterscreen for activators of the function of SWI/SNF related, matrix associated, actin dependent regulator of chromatin, subfamily a, member 2 (SMARCA2, BRM): Luminescence-based cell-based high throughput dose response assay to identify non-selective compounds using the VP16 reporter assay.; format: functional
# [31] = target: T4, DNA repair protein RAD52 homolog (Homo sapiens, UniProt P43351); format: functional, biochemical
# T4 sequence (P43351 whole entry): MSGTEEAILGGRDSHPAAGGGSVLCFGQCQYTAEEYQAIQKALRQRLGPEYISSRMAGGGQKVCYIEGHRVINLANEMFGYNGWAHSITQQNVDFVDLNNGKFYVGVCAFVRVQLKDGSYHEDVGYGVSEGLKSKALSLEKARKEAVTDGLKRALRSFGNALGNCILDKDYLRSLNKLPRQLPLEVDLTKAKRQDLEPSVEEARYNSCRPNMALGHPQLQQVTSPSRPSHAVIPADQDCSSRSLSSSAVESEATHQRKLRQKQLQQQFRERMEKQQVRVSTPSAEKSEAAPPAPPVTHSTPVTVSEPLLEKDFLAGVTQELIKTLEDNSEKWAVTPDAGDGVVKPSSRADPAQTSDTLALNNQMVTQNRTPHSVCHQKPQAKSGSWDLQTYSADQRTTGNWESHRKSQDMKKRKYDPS
# [32] = target: Mu-type opioid receptor (Homo sapiens, UniProt P35372); format: functional, cell-based;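 further: U2OS cells with beta-arrestin recruitment to OPRM1 by beta-gal complementation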
smiles,measurement,setting,value
N#Cc1ccc(C(=O)NCCC(=O)N[C@@H]2CCCc3ccccc32)cc1,AC50,[1],17.1 µM (active)
same,AC50,[2],> 52 µM (inactive)
O=C(CCNC(=O)c1ccc2c(c1)OC(F)(F)O2)N[C@@H]1CCCc2ccccc21,AC50,[1],7.51 µM (active)
same,AC50,[2],> 52 µM (inactive)
CNC[C@H](O)c1ccc(O)c(O)c1 [EPINEPHRINE BITARTRATE],IC50,[3],3.01 µM (active)
same,EC50,[4],0.586 µM (active)
same,IC50,[5],> 59.6 µM (not active)
Cc1cc(NC(=O)c2cncc(Br)c2)ccc1NC(=O)c1cc2ccccc2o1,EC50,[6],> 54.7 µM (inactive)
same,EC50,[7],> 89.2 µM (inactive)
same,EC50,[8],> 55.9 µM (inactive)
same,IC50,[9],5.63 µM (active)
same,AC50,[10],26.2 µM (active)
same,AC50,[11],10.4 µM (active)
same,AC50,[12],15.4 µM (active)
same,EC50,[13],> 54.7 µM (inactive)
COc1ccc(OC)c(NC(=O)CN(Cc2ccc(F)cc2)C2CCCCC2)c1,AC50,[14],4.33 µM (active)
same,AC50,[15],6.54 µM (active)
same,AC50,[16],50.8 µM (active)
same,AC50,[17],34.6 µM (active)
same,AC50,[18],4.99 µM (active)
N=c1oc2cc(O)ccc2cc1C(=O)Nc1ccc(Br)cc1,AC50,[19],> 52 µM (inactive)
same,CC50,[20],23.7 µM (active)
same,AC50,[21],> 52 µM (inactive)
Cc1c(C(=O)NCc2cccc([N+](=O)[O-])c2)sc(=O)n1Cc1cccc(F)c1,AC50,[19],48.4 µM (active)
COc1cc(NC(=O)NCc2ccco2)ccc1-c1ccc(NC(=O)NCc2ccco2)cc1OC,AC50,[16],> 70 µM (inactive)
same,AC50,[22],14 µM (active)
same,AC50,[23],10.3 µM (active)
same,AC50,[18],3.19 µM (active)
same,AC50,[12],> 52 µM (inactive)
CCc1nc2ccc(C(=O)Nc3ccc(OC)c(OC)c3)cn2c1N(CC)Cc1cccc(Br)c1,IC50,[24],> 69.5 µM (inactive)
same,IC50,[25],> 69.5 µM (inactive)
CCOC(=O)C1(CCOc2ccccc2)CCN(Cc2ccc(OC)cc2)CC1,AC50,[26],> 30 µM (inactive)
C=CCC[C@@H](Cc1ccc(F)cc1)C(=O)O[C@H](CNC(=O)[C@H](CC=C)CC(=O)N(CCO)Cc1ccccc1)c1ccccc1,IC50,[24],> 69.5 µM (inactive)
same,IC50,[25],12.2 µM (inactive)
CCOC(=O)C1CCN(C(=O)OC(C)(C)C)CC1,AC50,[26],> 30 µM (inactive)
CCN(CC)S(=O)(=O)c1ccc(-c2csc(NC(=O)C3CCCC3)n2)cc1,IC50,[27],1.18 µM (active)
O=C(Cc1ccc(Cl)cc1)NC1CCCC1,AC50,[28],> 70 µM (inactive)
Cc1nc2scc(C)n2c(=O)c1S(=O)(=O)Nc1ccc(N2CCOCC2)c(Cl)c1,AC50,[15],2.04 µM (active)
same,AC50,[17],38.3 µM (active)
same,AC50,[18],1.67 µM (active)
CN(C)CCNC(=O)c1cccc(-c2cc(NC=O)c3ncc(-c4cccc(C(F)(F)F)c4)n3c2)c1,EC50,[29],> 91.2 µM (inactive)
same,EC50,[30],> 91.2 µM (inactive)
same,EC50,[7],> 89.2 µM (inactive)
same,AC50,[31],4.34 µM (active)
CCC(=O)Nc1nc(-c2ccc(S(=O)(=O)N(C)C)cc2)cs1,IC50,[27],1.08 µM (active)
CCOC(=O)C1=CCN(Cc2ccccc2)CC1,EC50,[4],5.35 µM (active)
same,EC50,[32],92.5 µM (inactive)
